Each block holds one molecule with its values, some of them ahead of it.
Legend:
HCT-116 [1] = assay: Antiproliferative activity against human HCT-116 cells expressing wild type MTAP assessed as reduction in cell viability incubated for 5 days followed by replacement with fresh medium containing compound and measured after 5 days by CTG assay; type: functional, cell-based
[2] = Intrinsic clearance in mouse hepatocytes; type: ADME, cell-based, Hepatocyte; conditions: read-out: CLH
[3] = target: T1, Protein arginine N-methyltransferase 5 (Homo sapiens, UniProt O14744); assay: Inhibition of PRMT5 methyltransferase activity in human HCT-116 cells expressing wild type MTAP assessed as inhibition of PRMT5- mediated SDMA modification level incubated for 96 hrs by Western blot analysis; type: cell-based
[4] = Apparent permeability across apical to basolateral side in dog MDCKII-MDR1 cells at 2 uM incubated for 2.5 hrs by LC-MS/MS analysis; type: ADME, cell-based, Canis lupus familiaris, MDCK-MDR1; conditions: for Papp A→B at 2.5 h, 2 µM: MDCK-MDR1
[5] = Efflux ratio of apparent permeability across basolateral to apical side over apical to basolateral side in dog MDCKII-MDR1 cells at 2 uM incubated for 2.5 hrs by LC-MS/MS analysis; type: ADME, cell-based, Canis lupus familiaris, MDCK-MDR1; conditions: MDCK-MDR1
[6] = target: T1, Protein arginine N-methyltransferase 5; assay: Inhibition of PRMT5 methyltransferase activity in MTAP knockout human HCT-116 cells assessed as inhibition of PRMT5- mediated SDMA modification level incubated for 96 hrs by Western blot analysis; type: cell-based
HCT-116 [7] = assay: Antiproliferative activity against MTAP knockout human HCT-116 cells assessed as reduction in cell viability incubated for 5 days followed by replacement with fresh medium containing compound and measured after 5 days by CTG assay; type: functional, cell-based
[8] = Selectivity ratio of IC50 for antiproliferative activity against human HCT-116 cells expressing wild type MTAP to IC50 for antiproliferative activity against MTAP knockout human HCT-116 cells; type: functional
[9] = Intrinsic clearance in human hepatocytes; type: ADME, cell-based, Hepatocyte; conditions: read-out: CLH
[10] = Lipophilicity, logD of the compound at pH 7.4; type: physicochemical; conditions: buffer
[11] = Oral bioavailability in cynomolgus monkey at 10 mg/kg administered via gavage measured upto 24 hrs by LC-MS/MS analysis; type: ADME, organism-based, Macaca fascicularis; conditions: in vivo
[12] = Oral bioavailability in CD-1 mouse at 30 mg/kg administered via gavage measured upto 24 hrs by LC-MS/MS analysis; type: ADME, organism-based; conditions: in vivo
[13] = Total clearance in CD-1 mouse at 3 mg/kg, iv measured upto 24 hrs by LC-MS/MS analysis; type: ADME, organism-based; conditions: in vivo
[14] = Volume of distribution at steady state in beagle dog at 2 mg/kg, iv measured upto 24 hrs by LC-MS/MS analysis; type: ADME, organism-based, Canis lupus familiaris; conditions: in vivo, read-out: Vdss
[15] = AUCinfinity in CD-1 mouse at 30 mg/kg, po administered via gavage measured upto 24 hrs by LC-MS/MS analysis; type: ADME, organism-based; parameters: route oral, dose 30 mg/kg, time <=24; conditions: in vivo
[16] = Volume of distribution at steady state in cynomolgus monkey at 2 mg/kg, iv measured upto 24 hrs by LC-MS/MS analysis; type: ADME, organism-based, Macaca fascicularis; conditions: in vivo, read-out: Vdss
[17] = Half life in CD-1 mouse at 3 mg/kg, iv measured upto 24 hrs by LC-MS/MS analysis; type: ADME, organism-based; conditions: in vivo
[18] = Total clearance in beagle dog at 2 mg/kg, iv measured upto 24 hrs by LC-MS/MS analysis; type: ADME, organism-based, Canis lupus familiaris; conditions: in vivo
Lu-99 cell line [19] = assay: Antitumor activity against MTAP/CDKN2A deleted human Lu-99 cells xenografted in Hsd athymic nude mouse assessed as reduction in PRMT5 mediated SDMA level in tumor at 12.5 to 100 mg/kg, po qd administered via oral gavage for 21 days relative to control; type: functional; parameters: scale not given: the % may be the effect or the level left; conditions: dose 12.5-100 mg/kg, time 21 day
Lu-99 cell line [20] = assay: Antitumor activity against MTAP/CDKN2A deleted human Lu-99 cells xenografted in Hsd athymic nude mouse assessed as tumor growth inhibition at 100 mg/kg, po qd administered via oral gavage for 21 days by caliper method relative to control; type: functional; conditions: Lu-99, po, 504 h, time 21 day, read-out: TGI
[21] = Inhibition of PRMT5 C449S mutant/MEP50 (unknown origin) using Histone H2A as substrate; parameters: species or system Homo sapiens
[22] = Total clearance in cynomolgus monkey at 2 mg/kg, iv measured upto 24 hrs by LC-MS/MS analysis; type: ADME, organism-based, Macaca fascicularis; conditions: in vivo
[23] = Half life in cynomolgus monkey at 2 mg/kg, iv measured upto 24 hrs by LC-MS/MS analysis; type: ADME, organism-based, Macaca fascicularis; conditions: in vivo
[24] = Toxicity in Hsd athymic nude mouse xenografted with MTAP/CDKN2A deleted human Lu-99 cells assessed as effect on body weight at 12.5 to 100 mg/kg, po qd administered via oral gavage for 21 days; type: organism-based, Lu-99 cell line; conditions: in vivo, 504 h, dose 12.5-100 mg/kg, time 21 day
[25] = Oral bioavailability in beagle dog at 10 mg/kg administered via gavage measured upto 24 hrs by LC-MS/MS analysis; type: ADME, organism-based, Canis lupus familiaris; conditions: in vivo
[26] = Cmax in CD-1 mouse at 30 mg/kg, po administered via gavage measured upto 24 hrs by LC-MS/MS analysis; type: ADME, organism-based; parameters: route oral, dose 30 mg/kg, time <=24; conditions: in vivo
[27] = Half life in beagle dog at 2 mg/kg, iv measured upto 24 hrs by LC-MS/MS analysis; type: ADME, organism-based, Canis lupus familiaris; conditions: in vivo
Lu-99 cell line [28] = assay: Antitumor activity against MTAP/CDKN2A deleted human Lu-99 cells xenografted in Hsd athymic nude mouse assessed as tumor growth inhibition at 50 mg/kg, po qd administered via oral gavage for 21 days by caliper method relative to control; type: functional; conditions: Lu-99, po, 504 h, time 21 day, read-out: TGI
[29] = AUCinfinity in beagle dog at 10 mg/kg, po administered via gavage measured upto 24 hrs by LC-MS/MS analysis; type: ADME, organism-based, Canis lupus familiaris; parameters: route oral, dose 10 mg/kg, time <=24; conditions: in vivo
[30] = Cmax in beagle dog at 10 mg/kg, po administered via gavage measured upto 24 hrs by LC-MS/MS analysis; type: ADME, organism-based, Canis lupus familiaris; parameters: route oral, dose 10 mg/kg, time <=24; conditions: in vivo
[31] = Volume of distribution at steady state in CD-1 mouse at 3 mg/kg, iv measured upto 24 hrs by LC-MS/MS analysis; type: ADME, organism-based; conditions: in vivo, read-out: Vdss
[32] = target: T1, Protein arginine N-methyltransferase 5
[33] = target: T1, Protein arginine N-methyltransferase 5; assay: Binding affinity to MTA-bound human PRMT5 assessed as dissociation constant by SPR assay
[34] = target: T1, Protein arginine N-methyltransferase 5; remark: listed apart in the source
Homo sapiens = species: Homo sapiens; assay: Selectivity ratio of IC50 for inhibition of PRMT5 methyltransferase activity in human HCT-116 cells expressing wild type MTAP to IC50 for nhibition of PRMT5 methyltransferase activity in MTAP knockout human HCT-116 cells; type: cell-based

T1 sequence (O14744 whole entry): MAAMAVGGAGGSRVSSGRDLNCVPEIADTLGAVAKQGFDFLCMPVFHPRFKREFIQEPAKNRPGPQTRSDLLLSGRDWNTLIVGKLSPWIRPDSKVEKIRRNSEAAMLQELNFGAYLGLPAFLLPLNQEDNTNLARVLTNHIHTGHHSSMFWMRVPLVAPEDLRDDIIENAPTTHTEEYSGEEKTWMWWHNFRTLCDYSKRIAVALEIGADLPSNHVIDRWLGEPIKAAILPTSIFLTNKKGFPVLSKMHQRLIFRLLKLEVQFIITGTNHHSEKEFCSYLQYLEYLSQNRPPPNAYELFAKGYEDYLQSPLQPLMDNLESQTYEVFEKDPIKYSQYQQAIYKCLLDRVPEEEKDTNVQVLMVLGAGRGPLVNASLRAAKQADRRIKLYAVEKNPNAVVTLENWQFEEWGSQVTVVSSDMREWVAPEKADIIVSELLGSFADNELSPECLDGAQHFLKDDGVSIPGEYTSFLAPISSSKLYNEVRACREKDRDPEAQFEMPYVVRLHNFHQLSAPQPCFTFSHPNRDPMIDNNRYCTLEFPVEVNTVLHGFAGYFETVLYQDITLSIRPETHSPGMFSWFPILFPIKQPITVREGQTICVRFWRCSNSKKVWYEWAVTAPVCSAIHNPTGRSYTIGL

SMILES: Cn1ncc(-c2ccc3c(=O)[nH]nc(CN)c3c2)c1-c1cc(Cl)cc(OC2CC2)c1C#N
- IC50 (HCT-116 [1]): 990 nM
- CLint scaled [2]: 336 mL/min/kg
- IC50 [3]: 834 nM
- Papp A→B at 2.5 h, 2 µM [4]: 0.2 ×10⁻⁶ cm/s
- efflux ratio at 2.5 h, 2 µM [5]: 121
- IC50 [6]: 8 nM
- IC50 (HCT-116 [7]): 41 nM
- Ratio IC50 [8]: 24
- CLint scaled [9]: < 18 mL/min/kg

- Papp A→B at 2.5 h, 2 µM [4]: 2.3 ×10⁻⁶ cm/s
- logD [10]: -0.5
SMILES: Cn1cc(-c2ccc3c(=O)[nH]nc(CN)c3c2)cn1

SMILES: Cn1ncc(-c2ccc3c(=O)[nH]nc(CN)c3c2)c1-c1c(F)c(Cl)cc(OC2CC2)c1C#N
- bioavailability [11]: 41%
- bioavailability [12]: 80%
- clearance [13]: 83 mL/min/kg
- Vd [14]: 3.4 L/kg
- AUC(0-inf) [15]: 4850 ng·h/mL
- Vd [16]: 2.3 L/kg
- half-life [17]: 1.5 h
- clearance [18]: 14 mL/min/kg
- Activity (Lu-99 cell line [19]): 86%
- inhibition in vivo at 100 mg/kg (Lu-99 cell line [20]): 88%
- IC50 [21]: 717 nM
- clearance [22]: 15 mL/min/kg
- half-life [23]: 6.1 h
- Activity [24]: Non-Toxic
- Papp A→B at 2.5 h, 2 µM [4]: < 0.2 ×10⁻⁶ cm/s
- Papp ([4]; mdck-mdr1, 2.5 h, 2 µM, 2.5 h): 0.3 ×10⁻⁶ cm/s
- bioavailability [25]: 59%
- Cmax [26]: 1160 ng/mL
- half-life [27]: 4.8 h
- inhibition in vivo at 50 mg/kg (Lu-99 cell line [28]): 86%
- AUC(0-inf) [29]: 7470 ng·h/mL
- CLint scaled [9]: < 18 mL/min/kg
- Cmax [30]: 1400 ng/mL
- Vd [31]: 6.3 L/kg

- IC50 [32]: 14500 nM
- Papp A→B at 2.5 h, 2 µM [4]: 16 ×10⁻⁶ cm/s
- efflux ratio at 2.5 h, 2 µM [5]: 0.8
- Kd [33]: 1620 nM
- IC50 [34]: 4300 nM
SMILES: NCc1nnc(O)c2ccc(-c3ccccc3)cc12

SMILES: Cn1ncc(-c2ccc3c(=O)[nH]nc(CN)c3c2)c1-c1cccc(OC2CC2)c1C#N
- Ratio IC50 (Homo sapiens): 193
- IC50 (HCT-116 [1]): 6820 nM
- CLint scaled [2]: 237 mL/min/kg
- IC50 [3]: 6550 nM
- Papp A→B at 2.5 h, 2 µM [4]: 0.3 ×10⁻⁶ cm/s
- efflux ratio at 2.5 h, 2 µM [5]: 104
- IC50 [6]: 34 nM
- IC50 [34]: 1000 nM
- IC50 (HCT-116 [7]): 129 nM
- Ratio IC50 [8]: 53
- CLint scaled [9]: < 18 mL/min/kg

Reference: ChEMBL document CHEMBL5046262, “Fragment-Based Discovery of MRTX1719, a Synthetic Lethal Inhibitor of the PRMT5•MTA Complex for the Treatment of MTAP-Deleted Cancers” (J Med Chem, 2022)
